In ChEMBL document CHEMBL3526000 (Drug Metab Dispos, 2012) one finds Drug metabolism, Km and dose excreted data, which are given here for one compound.

The target of data set [1] is T1, UDP-glucuronosyltransferase 2B15 (Homo sapiens, UniProt P54855).
T1 sequence (P54855 whole entry): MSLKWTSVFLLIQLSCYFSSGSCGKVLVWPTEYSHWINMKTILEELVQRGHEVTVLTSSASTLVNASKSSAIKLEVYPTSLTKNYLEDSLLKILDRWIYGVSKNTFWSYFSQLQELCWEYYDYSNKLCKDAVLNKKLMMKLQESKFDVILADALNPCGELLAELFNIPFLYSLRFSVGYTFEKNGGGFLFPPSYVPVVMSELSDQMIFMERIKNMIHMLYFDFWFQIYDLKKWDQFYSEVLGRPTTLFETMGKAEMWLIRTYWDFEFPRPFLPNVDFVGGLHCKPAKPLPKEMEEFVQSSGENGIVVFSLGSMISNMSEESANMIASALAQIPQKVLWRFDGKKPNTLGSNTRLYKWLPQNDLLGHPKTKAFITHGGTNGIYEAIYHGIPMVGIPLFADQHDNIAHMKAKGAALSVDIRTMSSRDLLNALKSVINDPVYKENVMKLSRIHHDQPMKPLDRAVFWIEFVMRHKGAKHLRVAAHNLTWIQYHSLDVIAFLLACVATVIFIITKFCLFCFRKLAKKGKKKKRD
The data set is described as follows: Drug metabolism assessed as recombinant human UGT2B15 assessed as O-glucuronidation at 100 uM incubated for 60 mins by LC-MS/MS analysis. The settings on record: recombinant enzyme, 1 h. The class given is ADME.

Data set [2] addresses T2, UDP-glucuronosyltransferase 2B17 (Homo sapiens, UniProt O75795).
T2 sequence (O75795 whole entry): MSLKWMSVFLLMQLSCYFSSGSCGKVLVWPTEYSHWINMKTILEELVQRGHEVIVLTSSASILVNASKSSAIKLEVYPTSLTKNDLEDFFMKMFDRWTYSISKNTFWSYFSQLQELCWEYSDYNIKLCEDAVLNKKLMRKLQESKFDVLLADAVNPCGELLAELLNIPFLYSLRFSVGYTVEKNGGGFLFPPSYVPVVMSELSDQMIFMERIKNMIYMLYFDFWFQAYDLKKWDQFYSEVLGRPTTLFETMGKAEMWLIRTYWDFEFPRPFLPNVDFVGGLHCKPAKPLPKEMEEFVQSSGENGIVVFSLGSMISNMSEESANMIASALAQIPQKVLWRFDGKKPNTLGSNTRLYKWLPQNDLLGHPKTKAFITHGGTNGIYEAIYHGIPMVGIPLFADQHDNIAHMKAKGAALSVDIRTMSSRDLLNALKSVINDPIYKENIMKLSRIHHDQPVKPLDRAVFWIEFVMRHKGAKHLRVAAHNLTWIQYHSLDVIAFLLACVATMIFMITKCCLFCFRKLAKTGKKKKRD
The data set is described as follows: Drug metabolism assessed as recombinant human UGT2B17 assessed as N-glucuronidation at 100 uM incubated for 60 mins by LC-MS/MS analysis. The class given is ADME. The settings on record: recombinant enzyme, 1 h.

In data set [3] the target is T3, UDP-glucuronosyltransferase 1A7 (Homo sapiens, UniProt Q9HAW7).
T3 sequence (Q9HAW7 whole entry): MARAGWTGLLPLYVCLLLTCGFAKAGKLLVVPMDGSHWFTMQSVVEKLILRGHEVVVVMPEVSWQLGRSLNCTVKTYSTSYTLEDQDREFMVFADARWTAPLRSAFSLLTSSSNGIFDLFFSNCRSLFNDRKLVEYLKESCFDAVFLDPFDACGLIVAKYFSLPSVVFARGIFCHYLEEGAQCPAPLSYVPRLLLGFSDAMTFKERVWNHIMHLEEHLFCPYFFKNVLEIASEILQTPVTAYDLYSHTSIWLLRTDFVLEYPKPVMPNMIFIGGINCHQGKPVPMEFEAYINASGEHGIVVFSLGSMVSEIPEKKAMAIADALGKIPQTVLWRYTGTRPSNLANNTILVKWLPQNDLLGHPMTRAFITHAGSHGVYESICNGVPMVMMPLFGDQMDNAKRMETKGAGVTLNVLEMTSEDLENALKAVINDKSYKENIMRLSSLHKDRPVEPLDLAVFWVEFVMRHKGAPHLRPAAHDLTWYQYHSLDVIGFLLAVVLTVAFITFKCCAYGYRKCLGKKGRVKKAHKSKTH
The data set is described as follows: Drug metabolism assessed as recombinant human UGT1A7 assessed as N-glucuronidation at 100 uM incubated for 60 mins by LC-MS/MS analysis. Type of data set: ADME. The settings on record: recombinant enzyme, 1 h.

For data set [4], the target named is T4, UDP-glucuronosyltransferase 1A10 (Homo sapiens, UniProt Q9HAW8).
T4 sequence (Q9HAW8 whole entry): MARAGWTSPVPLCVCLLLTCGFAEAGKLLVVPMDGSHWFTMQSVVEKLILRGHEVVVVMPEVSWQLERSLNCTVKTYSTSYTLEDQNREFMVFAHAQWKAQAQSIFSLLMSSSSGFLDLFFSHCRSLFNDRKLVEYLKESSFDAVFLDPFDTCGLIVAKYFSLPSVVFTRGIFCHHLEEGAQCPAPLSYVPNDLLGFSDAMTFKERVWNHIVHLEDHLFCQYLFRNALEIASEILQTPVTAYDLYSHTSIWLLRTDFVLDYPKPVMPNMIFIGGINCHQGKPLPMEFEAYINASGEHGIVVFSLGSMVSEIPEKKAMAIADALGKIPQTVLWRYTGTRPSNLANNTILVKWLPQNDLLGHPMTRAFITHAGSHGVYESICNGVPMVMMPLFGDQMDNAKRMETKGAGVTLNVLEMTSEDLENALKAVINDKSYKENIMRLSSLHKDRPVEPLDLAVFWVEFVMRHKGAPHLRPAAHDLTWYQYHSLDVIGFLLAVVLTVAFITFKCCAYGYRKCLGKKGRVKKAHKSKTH
In words: Drug metabolism assessed as recombinant human UGT1A10 assessed as O-glucuronidation at 100 uM incubated for 60 mins by LC-MS/MS analysis. The class given is ADME. The settings on record: recombinant enzyme, 1 h.

Data set [5] addresses T5, UGT1A4 (Homo sapiens, UniProt P22310).
T5 sequence (P22310 whole entry): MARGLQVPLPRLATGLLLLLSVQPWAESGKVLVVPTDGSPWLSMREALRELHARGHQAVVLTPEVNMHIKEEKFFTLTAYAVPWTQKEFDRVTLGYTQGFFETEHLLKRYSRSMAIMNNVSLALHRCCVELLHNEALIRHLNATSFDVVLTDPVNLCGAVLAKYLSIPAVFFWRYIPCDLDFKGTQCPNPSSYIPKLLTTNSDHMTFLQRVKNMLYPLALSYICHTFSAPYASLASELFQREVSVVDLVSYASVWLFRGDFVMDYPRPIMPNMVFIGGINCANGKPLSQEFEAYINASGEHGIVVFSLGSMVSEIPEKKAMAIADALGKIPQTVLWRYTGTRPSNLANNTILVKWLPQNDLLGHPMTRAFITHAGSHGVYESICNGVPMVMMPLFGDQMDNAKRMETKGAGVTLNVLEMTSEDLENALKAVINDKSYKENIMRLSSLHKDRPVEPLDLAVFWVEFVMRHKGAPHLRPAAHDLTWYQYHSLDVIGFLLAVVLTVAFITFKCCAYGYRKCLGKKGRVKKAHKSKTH
In words: Drug metabolism assessed as recombinant human UGT1A4 assessed as O-glucuronidation at 10 to 400 uM incubated for 60 mins by LC-MS/MS analysis.

The nature of data set [6]: Drug excretion in human urine. Type of data set: ADME. The settings on record: read-out: Drug excretion.

`O=C(CCCN1CCC(O)(c2ccc(Cl)cc2)CC1)c1ccc(F)cc1` [HALOPERIDOL]: the Drug metabolism result in data set [1], in data set [2], in data set [3] and in data set [4] was “metabolite_not_detected” throughout. Moreover, the Km at 1 h, 400 µM in data set [5] stood at 64 µM. Besides, the dose excreted in data set [6] was determined as 1%.
